The text below walks through data of PMC10711620 (Frontiers in Pharmacology, 2023).

Experiment [1] has as its system blood platelets. Description: ADP-induced blood platelet aggregation in platelet-rich plasma. It counts as cell-based. To be noted: Homo sapiens; for inhibition at 50 µg/mL: 50 μg/mL, ADP as agonist. Here is the method:
(§1) The blood samples under examination contained a normal range of blood platelets, ranging from 2.15 × 10^5 to 3.41 × 10^5 cells/μl. Platelet-rich plasma (PRP) was prepared by differentially centrifuging whole blood according to the method described earlier ([Kolodziejczyk-Czepas et al., 2021]). Subsequently, freshly obtained PRP samples (495 μL) were pre-incubated for 15 min at 37°C with the tested analytes (5 μL). These mixtures were then transferred into Chrono-Log 490 aggregometer cuvettes (Havertown, United States). Platelet aggregation measurements were conducted after stimulating the samples with either ADP (a final concentration of 10 μM) or collagen (a final concentration of 2 μg/mL), following the manufacturer’s instructions.

In experiment [2] the test system is human plasma. Description: Thrombin time (TT) in blood plasma. It is filed as biochemical. Conditions: mean ± SE, n = 12. The method, then:
(§2) When determining the hemostatic parameters, stock solutions of the P. spinosa flower extracts (10 mg/mL) were prepared in 30% DMSO. DMSO concentrations in working solutions of the tested extracts (0.1, 0.5 and 5 mg/mL) were 15%. The studies mixed 5 µL of the extracts with 495 µL of blood plasma or thrombin solution. Control samples were untreated with the extracts; however, they contained a vehicle for the plant preparations, i.e., DMSO. The effect of DMSO on the investigated parameters was excluded in preliminary tests. All experiments used argatroban, a reference anticoagulant drug, as a positive control.
Thrombin (TT), prothrombin (PT) and the activated partial thromboplastin time (APTT) were measured in blood plasma using a Kselmed K-3002 Optic coagulometer (Kselmed, Grudziadz, Poland) and reagents purchased from Diagon Kft. (Budapest, Hungary), according to the laboratory protocols delivered by the manufacturer. Before the assays, the blood plasma samples were pre-incubated with the examined extracts at the final 1–50 μg/mL concentration for 15 min at 37°C. Control samples were prepared using blood plasma untreated with the extracts.

In experiment [3] the test system is human plasma. Description: Prothrombin time (PT) in blood plasma. It is filed as biochemical. To be noted: mean ± SE, n = 12. Here is the method:
When determining the hemostatic parameters, stock solutions of the P. spinosa flower extracts (10 mg/mL) were prepared in 30% DMSO. […] The studies mixed 5 µL of the extracts with 495 µL of blood plasma or thrombin solution. Control samples were untreated with the extracts; however, they contained a vehicle for the plant preparations, i.e., DMSO.
(Budapest, Hungary), according to the laboratory protocols delivered by the manufacturer. […] Control samples were prepared using blood plasma untreated with the extracts.

Experiment [4] relates to human plasma. Description: Activated partial thromboplastin time (APTT) in blood plasma. It is filed as biochemical. Conditions: mean ± SE, n = 12. The method, then:
as §2
Thrombin (TT), prothrombin (PT) and the activated partial thromboplastin time (APTT) were measured in blood plasma using a Kselmed K-3002 Optic coagulometer (Kselmed, Grudziadz, Poland) and reagents purchased from Diagon Kft. (Budapest, Hungary), according to the laboratory protocols delivered by the manufacturer. […] Control samples were prepared using blood plasma untreated with the extracts.

The target in experiment [5] is T1, thrombin (Bos taurus, UniProt P00735).
T1 construct: comprises two polypeptide chains: the light chain, formed by 36 amino acids, and the heavy chain, which has 259 amino acids; purchased Biomed (Lublin, Poland)
Details: method as in Liu et al. (2010). To be noted: ref Liu et al. (2010); read-out: IC50, thrombin inhibition in optimized TT assay; cited from earlier work.

In experiment [6] the test system is thrombin. The arrangement: method as in Wei et al. (2019). Conditions: ref Wei et al. (2019); read-out: IC50, inhibition of proteolytic activity of thrombin; cited from earlier work.
Experiment [7] deals with blood platelets. In words: Collagen-induced blood platelet aggregation in platelet-rich plasma. It counts as cell-based. To be noted: Homo sapiens, 5 μg/mL. Here is the method:
as §1

Experiment [8] deals with T1, thrombin. Description: Amidolytic activity of thrombin, chromogenic substrate S-2238. It is filed as biochemical. To be noted: read-out: IC50, thrombin-inhibitory efficiency in the amidolytic tests (converted). Here is the method:
When determining the hemostatic parameters, stock solutions of the P. spinosa flower extracts (10 mg/mL) were prepared in 30% DMSO. DMSO concentrations in working solutions of the tested extracts (0.1, 0.5 and 5 mg/mL) were 15%. The studies mixed 5 µL of the extracts with 495 µL of blood plasma or thrombin solution. Control samples were untreated with the extracts; however, they contained a vehicle for the plant preparations, i.e., DMSO.
The thrombin enzyme, purchased from Biomed (Lublin, Poland), was diluted with 0.05 M Tris-buffered saline (TBS), pH 7.4, to the concentration of 0.75 U/mL, and pre-incubated with the examined extracts at the final concentration of 1–50 μg/mL for 10 min, at 37°C. In control samples, 20% DMSO instead of the extracts was used. The measurements were conducted using a kinetic protocol, with absorbance recorded at 415 nm, every 10 s, for 15 min. The reaction mixture comprised 280 µL of thrombin (pre-incubated with the extracts or control/untreated enzyme) and 40 µL of 3 mM chromogenic substrate Chromogenix S-2238 purchased from Instrumentation Laboratory (Bedford, MA, United States of America). Thrombin amidolytic activity was estimated using the BMG Labtech software based on the maximal velocity of the reaction (Vmax). The assays were performed using 96-well microplates and the BMG Labtech SpectroStar Nano spectrophotometer (BMG LABTECH, Offenburg, Germany).

A further experiment has as its target T2, human thrombin (Homo sapiens, UniProt P00734).
T2 construct: comprises two polypeptide chains: the light chain, formed by 36 amino acids, and the heavy chain, which has 259 amino acids; purchased Sigma-Aldrich (St. Louis, MO, United States)
Description: Circular dichroism spectra of thrombin. Conditions: thrombin 15 μg/mL, compounds from 1 μg/mL, 37°C. The method, then: Each spectrum was the average of three repetitions. Human thrombin was used at a 15 μg/mL concentration in 10 mM phosphate buffer (pH = 7.4). In determining circular dichroism spectra, stock solutions of P. spinosa flower components (10 mg/mL) in 10% tetrahydrofuran were initially prepared. The final concentration of tetrahydrofuran in the sample was less than 0.05%. The selected extract components in phosphate buffer without thrombin at the concentrations used in the experiments were used as a baseline for thrombin/extract complexes spectra.
For orientation: CD spectra are sensitive to the conformation of chiral molecules.

Where two headings read alike, the source gives them in different places.

On to `O=c1c(O[C@@H]2O[C@@H](CO)[C@H](O)[C@H]2O)c(-c2ccc(O)c(O)c2)oc2cc(O)cc(O)c12` [AV, Quercetin 3-O-α-L-arabinofuranoside], for which the inhibition at 50 µg/mL in the experiment on blood platelets [1] is ≤ 15%.

Turning to `CC1CNc2c(cccc2S(=O)(=O)N[C@@H](CCCNC(=N)N)C(=O)N2CC[C@@H](C)C[C@@H]2C(=O)O)C1` (stereo partly shown) [Argatroban], the “Clothing times TT” value is 974.60 ± 27.50 % of the control/untreated human plasma in the experiment with human plasma [2] (0.5 µg/mL), “No clot” in the experiment on human plasma [2] (5 µg/mL) and “No clot” in the experiment with human plasma [2] (10 µg/mL). In addition, the “Clothing times PT” value in the experiment on human plasma [3] (0.5 µg/mL) is on record as 134.01 ± 1.50 % of the control/untreated human plasma; with human plasma [3] (5 µg/mL), 562.65 ± 12.69 % of the control/untreated human plasma; in the experiment with human plasma [3] (10 µg/mL), 821.54 ± 46.95 % of the control/untreated human plasma. Besides, the figures for the “Clothing times APTT” value in the experiment on human plasma [4] (0.5 µg/mL), with human plasma [4] (5 µg/mL) and in the experiment on human plasma [4] (10 µg/mL) were 202.58 ± 2.32 % of the control/untreated human plasma, 423.72 ± 7.83 % of the control/untreated human plasma and “No clot”, respectively.

Take `O=c1c(O[C@@H]2O[C@H](CO)[C@H](O)[C@H](O)[C@H]2O)c(-c2ccc(O)c(O)c2)oc2cc(O)cc(O)c12` [HY, Quercetin 3-O-β-D-galactopyranoside]: on thrombin [5], the IC50 was > 1000 µM.

Regarding `O=c1c(O[C@@H]2O[C@H](CO)[C@@H](O)[C@H](O)[C@H]2O)c(-c2ccc(O)c(O)c2)oc2cc(O)cc(O)c12` [IQ, Quercetin 3-O-β-D-glucopyranoside], the IC50 with thrombin [6] is 28.8 µM.

On to `COc1ccc2c(c1)c(CC(=O)O)c(C)n2C(=O)c1ccc(Cl)cc1` [Indomethacin], for which the inhibition at 5 µg/mL in the experiment with blood platelets [1] (5 μg/mL, ADP) is ~23%; with blood platelets [7], ~86%.

`O=c1c(O[C@@H]2O[C@@H](CO)[C@H](O)[C@H]2O)c(-c2ccc(O)cc2)oc2cc(O)cc(O)c12` [JU, Kaempferol 3-O-α-L-arabinofuranoside]: the inhibition at 50 µg/mL with blood platelets [1] is ≤ 15%.

Regarding `O=c1c(O)c(-c2ccc(O)cc2)oc2cc(O)cc(O)c12` [KA, Kaempferol], the figures for the IC50 on thrombin [8] and on thrombin [5] were 283 µM and 109 µM, respectively.

In the case of `Oc1cc(O)c2c(c1)O[C@@]1(c3ccc(O)c(O)c3)Oc3cc(O)c4c(c3[C@@H]2[C@H]1O)O[C@H](c1ccc(O)c(O)c1)[C@H](O)C4` [PA2, proanthocyanidin A2], the IC50 at thrombin [8] is 90.8 µM. In addition, the “Change of thrombin CD spectrum / secondary structure” value at human thrombin was “most apparent modification of the thrombin α-helix structure”.

Regarding `C[C@@H]1O[C@@H](OC[C@H]2O[C@@H](Oc3c(-c4ccc(O)c(O)c4)oc4cc(O)cc(O)c4c3=O)[C@H](O)[C@@H](O)[C@@H]2O)[C@H](O)[C@H](O)[C@H]1O` [RT, Quercetin 3-O-(6″-O-α-L-rhamnopyranosyl)-β-D-glucopyranoside], the IC50 is 34.1 µM in the experiment with thrombin [6] and > 1000 µM on thrombin [5].

In the case of `C[C@@H]1O[C@@H](Oc2c(-c3ccc(O)cc3)oc3cc(O)cc(O)c3c2=O)[C@H](OC(=O)/C=C/c2ccc(O)cc2)[C@H](O)[C@H]1OC(=O)/C=C/c1ccc(O)cc1` [kaempferol-3-O-(2″,4″-di-E-p-coumaroyl)-rhamnoside], at thrombin [5], the concentration for half-maximal inhibition (IC50) was 52 µM.

Turning to `O=c1c(O[C@@H]2O[C@H](CO)[C@@H](O)[C@H](O)[C@H]2O)c(-c2ccc(O)cc2)oc2cc(O)cc(O)c12` [kaempferol-3-O-glucoside], the concentration for half-maximal inhibition (IC50) on thrombin [5] was > 1000 µM.

Take `O=C(/C=C/c1ccc(O)cc1)O[C@H]1[C@H](Oc2c(-c3ccc(O)cc3)oc3cc(O)cc(O)c3c2=O)O[C@@H](CO)[C@@H]1O` [p-cJU, Kaempferol 3-O-(2″-O-E-p-coumaroyl)-α-L-arabinofuranoside]: the IC50 on thrombin [8] is 67.8 µM.

Take “kaempferol-3-O-(2″-di-E-p-coumaroyl)-rhamnoside”: on thrombin [5], the IC50 is 83 µM.

The term inhibition denotes the drop in the measured response relative to a control, in per cent. Higher therefore signals a response far below the control. By IC50 is commonly meant the midpoint of a concentration-inhibition curve.
